Activity calls are given as the source filed them.
Experiments:
[1] = biological target: T1, Coagulation factor XII (Homo sapiens, UniProt P00748); test: FXIIa inhibitor potency, concentration-response, biochemical (AID 716); format: functional
T1 sequence (P00748 whole entry): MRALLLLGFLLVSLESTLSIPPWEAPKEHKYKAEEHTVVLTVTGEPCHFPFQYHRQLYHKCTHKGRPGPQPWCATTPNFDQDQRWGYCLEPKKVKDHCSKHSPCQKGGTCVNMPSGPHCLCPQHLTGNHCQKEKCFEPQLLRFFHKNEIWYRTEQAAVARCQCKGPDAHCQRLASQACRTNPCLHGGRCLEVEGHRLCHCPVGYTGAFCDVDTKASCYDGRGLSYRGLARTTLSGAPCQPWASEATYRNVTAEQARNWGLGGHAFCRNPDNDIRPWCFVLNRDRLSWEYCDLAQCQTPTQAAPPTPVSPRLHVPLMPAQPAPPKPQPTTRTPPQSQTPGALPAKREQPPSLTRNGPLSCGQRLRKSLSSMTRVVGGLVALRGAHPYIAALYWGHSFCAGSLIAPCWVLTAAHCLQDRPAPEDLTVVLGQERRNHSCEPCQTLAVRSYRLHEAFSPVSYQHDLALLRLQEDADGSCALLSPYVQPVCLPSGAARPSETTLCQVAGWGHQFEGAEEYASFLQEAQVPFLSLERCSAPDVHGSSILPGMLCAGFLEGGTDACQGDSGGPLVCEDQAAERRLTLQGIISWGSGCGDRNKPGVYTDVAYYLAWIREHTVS

[2] = tested on: HEK293; test: NOD1 signaling inhibitors, primary screen, cell-based, luminescence, uHTS (AID 1578); format: functional; conditions: Homo sapiens
[3] = tested on: HEK293; test: cells; format: functional, cell-based; conditions: Homo sapiens
[4] = tested on: HEK293; test: cells; format: functional, cell-based; conditions: Homo sapiens; remark: listed apart in the source
[5] = biological target: Nucleotide-binding oligomerization domain-containing protein 2 (Homo sapiens, UniProt Q9HC29); test: NOD2 signaling inhibitors, cell-based, luminescence, uHTS, HEK293 (AID 1566); format: functional
[6] = tested on: HEK293; test: NOD2 signaling inhibitors in MDP-stimulated cells, cell-based, uHTS, luminescence (AID 2001); format: functional; conditions: Homo sapiens
[7] = tested on: HEK293; test: cells; format: functional, cell-based; conditions: Homo sapiens; remark: listed apart in the source
[8] = biological target: Major prion protein (Homo sapiens, UniProt P04156); format: functional, cell-based
[9] = cells
[10] = biological target: T2, Cannabinoid receptor 2 (Homo sapiens, UniProt P34972); test: SAR analysis of antagonists of the Cannabinoid Receptor 2 using an Image-Based Assay - Set 2. [Related pubchem assays (depositor defined):AID1961, AID1965]; format: functional
[11] = biological target: G-protein coupled receptor 55 (Homo sapiens, UniProt Q9Y2T6); test: SAR analysis of selective Agonists of GPR55 using an Image-Based Assay - Set 2. [Related pubchem assays (depositor defined):AID1961, AID1965]; format: functional
[12] = biological target: T2, Cannabinoid receptor 2; test: SAR analysis of agonists of the Cannabinoid Receptor 2 using an Image-Based Assay - Set 2. [Related pubchem assays (depositor defined):AID1961, AID1965]; format: functional
[13] = biological target: T3, G-protein coupled receptor 35 (Homo sapiens, UniProt Q9HC97); test: SAR analysis of Agonists of the GPR35 Receptor using an Image-Based Assay - Set 3. [Related pubchem assays (depositor defined):AID1961, AID1965]; format: functional
[14] = biological target: T4, Cannabinoid receptor 1 (Homo sapiens, UniProt P21554); test: SAR analysis of antagonists of the Cannabinoid Receptor 1 using an Image-Based Assay - Set 3. [Related pubchem assays (depositor defined):AID1961, AID1965]; format: functional
[15] = biological target: T4, Cannabinoid receptor 1; test: SAR analysis of agonists of the Cannabinoid Receptor 1 using an Image-Based Assay - Set 3. [Related pubchem assays (depositor defined):AID1961, AID1965]; format: functional
[16] = biological target: T3, G-protein coupled receptor 35; test: SAR analysis of Antagonists of the GPR35 Receptor using an Image-Based Assay - Set 4. [Related pubchem assays (depositor defined):[…]]; format: functional
[17] = growth suppression of PTEN-null colon cells, dose response, cell-based, HCT116 PTEN knockout (AID 1047); format: functional;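 also: HCT116 colon tumor cells with PTEN knocked out; cells exposed to compound for 60 hours before readout; potency for loss of cell viability measured by luminescence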
[18] = growth suppression of beta-catenin-knockout colon cells, dose response, cell-based, HCT116, human colon tumor (AID 1045); format: functional;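 also: HCT116 colon tumor cells with beta catenin knocked out; cells exposed to compound for 60 hours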
[19] = THP-1 cell cytotoxicity, dose response, cytotoxicity control for non-replicating M. tuberculosis project (AID 489025); format: functional
[20] = HepG2 cell cytotoxicity, dose response, cytotoxicity control for non-replicating M. tuberculosis project (AID 489018); format: functional; conditions: Mycobacterium tuberculosis
[21] = biological target: T5, Caspase-3 (Homo sapiens, UniProt P42574); format: functional;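 also: Dose-response selectivity test against caspase-3 for candidate inhibitors of sentrin-specific proteases (SENPs)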
T5 sequence (P42574 whole entry): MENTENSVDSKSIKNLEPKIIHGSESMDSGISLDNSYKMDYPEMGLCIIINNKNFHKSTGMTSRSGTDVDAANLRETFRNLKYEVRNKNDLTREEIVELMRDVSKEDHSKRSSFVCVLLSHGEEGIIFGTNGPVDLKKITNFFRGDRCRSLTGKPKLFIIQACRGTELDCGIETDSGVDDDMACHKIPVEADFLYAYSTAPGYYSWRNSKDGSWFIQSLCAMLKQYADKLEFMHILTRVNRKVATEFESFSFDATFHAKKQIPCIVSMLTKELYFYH

[22] = Vero E6 cell cytotoxicity, dose response, cytotoxicity control for non-replicating M. tuberculosis project, secondary assay (AID 492998); format: functional, VeroE6; conditions: Vero C1008
[23] = biological target: T6, Sentrin-specific protease 7 (Homo sapiens, UniProt Q9BQF6); format: functional;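 also: Luminescence-based dose-response confirmation of ultra-high-throughput screening hits, measuring inhibition of SENP7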
T6 sequence (Q9BQF6 whole entry): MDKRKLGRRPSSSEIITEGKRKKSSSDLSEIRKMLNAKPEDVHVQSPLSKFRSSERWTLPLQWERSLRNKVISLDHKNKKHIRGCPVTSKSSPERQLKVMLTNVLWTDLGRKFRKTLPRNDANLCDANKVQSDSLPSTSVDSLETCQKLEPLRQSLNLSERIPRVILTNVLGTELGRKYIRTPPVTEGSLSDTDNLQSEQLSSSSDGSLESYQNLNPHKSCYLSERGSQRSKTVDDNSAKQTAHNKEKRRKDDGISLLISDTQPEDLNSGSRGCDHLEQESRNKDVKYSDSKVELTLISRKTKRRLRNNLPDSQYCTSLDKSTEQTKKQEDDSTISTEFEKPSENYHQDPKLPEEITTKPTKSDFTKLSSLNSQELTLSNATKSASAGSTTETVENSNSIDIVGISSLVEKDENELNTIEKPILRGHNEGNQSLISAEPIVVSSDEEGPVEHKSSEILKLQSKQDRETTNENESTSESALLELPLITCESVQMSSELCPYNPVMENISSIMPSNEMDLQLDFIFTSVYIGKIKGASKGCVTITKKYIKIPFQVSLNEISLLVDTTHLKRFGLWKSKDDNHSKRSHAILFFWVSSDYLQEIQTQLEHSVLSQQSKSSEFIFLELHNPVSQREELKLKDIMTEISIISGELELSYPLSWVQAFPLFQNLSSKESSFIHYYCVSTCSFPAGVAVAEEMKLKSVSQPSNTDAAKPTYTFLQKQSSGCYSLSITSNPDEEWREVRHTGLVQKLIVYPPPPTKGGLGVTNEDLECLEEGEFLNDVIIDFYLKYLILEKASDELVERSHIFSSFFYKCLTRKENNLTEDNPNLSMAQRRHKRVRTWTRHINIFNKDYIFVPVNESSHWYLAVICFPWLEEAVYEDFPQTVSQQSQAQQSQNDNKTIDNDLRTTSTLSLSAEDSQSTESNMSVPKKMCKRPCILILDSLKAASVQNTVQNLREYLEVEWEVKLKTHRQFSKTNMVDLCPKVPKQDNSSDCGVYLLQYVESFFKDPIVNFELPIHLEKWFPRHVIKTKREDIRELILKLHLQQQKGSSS

[24] = biological target: T7, Sentrin-specific protease 6 (Homo sapiens, UniProt Q9GZR1); format: functional;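 also: Luminescence-based dose-response confirmatory assay of SENP6 inhibition, following up an ultra-high-throughput screen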
T7 sequence (Q9GZR1 whole entry): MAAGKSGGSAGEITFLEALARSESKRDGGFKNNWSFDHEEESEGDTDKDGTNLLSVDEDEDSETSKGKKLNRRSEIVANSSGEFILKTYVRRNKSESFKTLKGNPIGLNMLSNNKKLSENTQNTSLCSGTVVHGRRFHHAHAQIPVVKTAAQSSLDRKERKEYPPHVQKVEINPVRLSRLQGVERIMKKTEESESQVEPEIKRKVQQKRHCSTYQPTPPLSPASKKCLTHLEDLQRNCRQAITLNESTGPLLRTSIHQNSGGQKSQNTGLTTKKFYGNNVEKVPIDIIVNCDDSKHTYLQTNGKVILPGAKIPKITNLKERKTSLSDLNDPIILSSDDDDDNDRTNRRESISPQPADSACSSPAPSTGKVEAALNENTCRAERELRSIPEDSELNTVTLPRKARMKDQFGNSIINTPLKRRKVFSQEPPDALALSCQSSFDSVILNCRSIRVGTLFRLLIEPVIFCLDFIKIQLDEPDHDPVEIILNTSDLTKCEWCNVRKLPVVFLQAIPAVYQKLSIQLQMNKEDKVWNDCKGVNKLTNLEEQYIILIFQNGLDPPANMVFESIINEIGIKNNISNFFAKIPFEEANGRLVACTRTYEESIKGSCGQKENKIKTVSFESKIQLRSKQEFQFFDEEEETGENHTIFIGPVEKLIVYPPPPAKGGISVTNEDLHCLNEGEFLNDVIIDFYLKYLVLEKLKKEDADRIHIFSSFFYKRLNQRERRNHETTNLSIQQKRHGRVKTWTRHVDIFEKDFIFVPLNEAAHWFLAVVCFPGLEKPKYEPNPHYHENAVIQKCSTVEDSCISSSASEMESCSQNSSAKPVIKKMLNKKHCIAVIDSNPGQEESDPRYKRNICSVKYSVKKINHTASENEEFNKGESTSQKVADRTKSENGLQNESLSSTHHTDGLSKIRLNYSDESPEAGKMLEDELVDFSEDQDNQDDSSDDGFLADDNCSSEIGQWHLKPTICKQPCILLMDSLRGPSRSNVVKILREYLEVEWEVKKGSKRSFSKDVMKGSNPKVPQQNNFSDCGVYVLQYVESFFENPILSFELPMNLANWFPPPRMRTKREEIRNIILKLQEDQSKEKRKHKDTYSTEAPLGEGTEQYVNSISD

[25] = biological target: T8, Sentrin-specific protease 8 (Homo sapiens, UniProt Q96LD8); format: functional;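 also: luminescence read-out of SENP8 inhibition, dose-response confirmation following an ultra-high-throughput screen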
T8 sequence (Q96LD8 whole entry): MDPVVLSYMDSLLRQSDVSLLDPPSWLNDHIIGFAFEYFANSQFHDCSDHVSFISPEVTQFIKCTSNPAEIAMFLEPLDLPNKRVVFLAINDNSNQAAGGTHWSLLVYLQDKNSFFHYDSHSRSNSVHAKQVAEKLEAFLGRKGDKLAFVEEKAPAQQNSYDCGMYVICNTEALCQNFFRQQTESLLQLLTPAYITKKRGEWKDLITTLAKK

[26] = tested on: INS1; test: beta cell apoptosis inhibitors, cytokine rescue, dose response, luminescence, retest (AID 449756); format: functional, cell-based; conditions: Rattus norvegicus;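 also: cell death triggered by IL-1 beta plus TNF-alpha plus IFN-gamma mixture; protective hits raise ATP signal compared with cytokine alone wells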
[27] = biological target: Photoreceptor-specific nuclear receptor (Homo sapiens, UniProt Q9Y5X4); format: functional, cell-based;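 also: CHO-S cells with Gal4-NCOR and VP16-NR2E3 two-hybrid luciferase reporter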

CC(C)CCn1c(=S)[nH]c2ncccc2c1=O
inactive: IC50 [1] > 50 µM

Cc1nc2c(Br)cc(Br)cc2cc1O
active: EC50 [2] 11.4 µM | IC50 [3] 6.3 µM | EC50 [5] 13.2 µM | IC50 [6] 6.68 µM | IC50 [8] 1.36 µM
inactive: IC50 [4] > 20 µM | IC50 [7] > 20 µM | IC50 [9] > 138 µM

COc1ccc(S(=O)(=O)N2CCOCC2)cc1NC(=O)c1ccc2c(c1)OCO2
inactive: IC50 [10] > 32 µM | EC50 [11] 18 µM | EC50 [12] > 32 µM | EC50 [13] > 32 µM | IC50 [14] > 32 µM | EC50 [15] > 32 µM | IC50 [16] > 32 µM

COc1ccccc1-n1c(=O)oc2ccc(Cl)cc2c1=O
active: EC50 [17] 11.7 µM | EC50 [18] 11.9 µM | CC50 [19] 19.8 µM | CC50 [20] > 20 µM | IC50 [21] 26.9 µM | CC50 [22] > 20 µM | IC50 [23] 11.5 µM | IC50 [24] 16.5 µM | IC50 [25] 22.6 µM | AC50 [26] 8.62 µM | IC50 [27] 5.1 µM

— ChEMBL document CHEMBL1201862, “PubChem BioAssay data set” (2004)
